Assay results taken from the CheMixHub viscosity set.

Assay: xn = mol fraction of the nth substance listed

Brc1ccc(Br)cc1 + CC(C)O
viscosity [mPa·s], 101 kPa
Conditions | 298.15 K | 303.15 K | 308.15 K | 313.15 K | 318.15 K
x1 = 0.02851 | 1.945 | 1.682 | 1.476 | 1.307 | 1.16
x1 = 0.04384 | – | 1.663 | 1.47 | 1.291 | 1.142

C[N+](=O)[O-] + CC(C)O
viscosity [mPa·s]
Conditions | 293.15 K | 298.15 K | 303.15 K | 313.15 K
101 kPa, x1 = 0.1361 | – | 1.599 | – | –
101 kPa, x1 = 0.2622 | – | 1.267 | – | –
101 kPa, x1 = 0.3785 | – | 1.025 | – | –
101 kPa, x1 = 0.4866 | – | 0.8807 | – | –
101 kPa, x1 = 0.5871 | – | 0.7784 | – | –
101 kPa, x1 = 0.6805 | – | 0.7133 | – | –
101 kPa, x1 = 0.7685 | – | 0.6771 | – | –
101 kPa, x1 = 0.8503 | – | 0.6562 | – | –
101 kPa, x1 = 0.9277 | – | 0.6386 | – | –
101.33 kPa, x2 = 0.0502 | 0.629 | – | 0.561 | 0.504
101.33 kPa, x2 = 0.1001 | 0.624 | – | 0.552 | 0.494
101.33 kPa, x2 = 0.1501 | 0.623 | – | 0.55 | 0.49
101.33 kPa, x2 = 0.2003 | 0.633 | – | 0.554 | 0.491
101.33 kPa, x2 = 0.25 | 0.649 | – | 0.564 | 0.496
101.33 kPa, x2 = 0.3 | 0.672 | – | 0.579 | 0.507
101.33 kPa, x2 = 0.35 | 0.701 | – | 0.597 | 0.518
101.33 kPa, x2 = 0.4001 | 0.731 | – | 0.616 | 0.535
101.33 kPa, x2 = 0.4501 | 0.772 | – | 0.647 | 0.552
101.33 kPa, x2 = 0.5 | 0.817 | – | 0.679 | 0.574
101.33 kPa, x2 = 0.55 | 0.868 | – | 0.716 | 0.601
101.33 kPa, x2 = 0.6 | 0.927 | – | 0.758 | 0.639
101.33 kPa, x2 = 0.65 | 1 | – | 0.811 | 0.673
101.33 kPa, x2 = 0.7 | 1.082 | – | 0.867 | 0.71
101.33 kPa, x2 = 0.75 | 1.182 | – | 0.937 | 0.764
101.33 kPa, x2 = 0.8 | 1.326 | – | 1.044 | 0.837
101.33 kPa, x2 = 0.85 | 1.485 | – | 1.154 | 0.917
101.33 kPa, x2 = 0.9 | 1.698 | – | 1.302 | 1.023
101.33 kPa, x2 = 0.95 | 1.988 | – | 1.503 | 1.159

N#C[S-].NC(N)=[NH2+] + CC(N)=O
viscosity [mPa·s], 100 kPa
Conditions | 293.15 K | 298.13 K | 303.15 K | 308.15 K | 313.15 K | 318.15 K | 323.15 K
x1 = 0.2 | – | – | 16.53 | 13.36 | 10.98 | 9.17 | 7.72
x1 = 0.25 | 25.56 | 21.49 | 17.47 | 14.41 | 12.05 | 10.31 | 8.95
x1 = 0.3333 | 25.06 | 21.05 | 17.16 | 14.05 | 11.66 | 9.89 | 8.48

CCCCOC(=O)C(C)O (stereo not drawn) + CC(O)CO
101 kPa
Conditions | viscosity [mPa·s]
293.15 K, x1 = 0.3 | 17.35
293.15 K, x1 = 0.6996 | 6.325
303.15 K, x1 = 0.0999 | 21.45
308.15 K, x1 = 0.3999 | 6.935
323.15 K, x1 = 0.2 | 6.665
323.15 K, x1 = 0.4998 | 3.435

CCCCC(CC)COP(=O)(O)OCC(CC)CCCC (stereo not drawn) + CCC(=O)O
303.15 K, 101 kPa
Conditions | viscosity [mPa·s]
x1 = 0.0668 | 1.394
x1 = 0.1278 | 1.986
x1 = 0.2286 | 3.022
x1 = 0.3182 | 4.286
x1 = 0.4677 | 6.968
x1 = 0.5096 | 7.792
x1 = 0.5879 | 9.486
x1 = 0.6584 | 11.01
x1 = 0.7068 | 12.08
x1 = 0.7594 | 13.3
x1 = 0.814 | 14.5
x1 = 0.8783 | 16.08
x1 = 0.9378 | 17.59

Cc1cccc(O)c1 + CCC(=O)O
viscosity [mPa·s], 101 kPa
Conditions | x2 = 0.1345 | x2 = 0.2591 | x2 = 0.3747 | x2 = 0.4825 | x2 = 0.5831 | x2 = 0.6772 | x2 = 0.7654 | x2 = 0.8483 | x2 = 0.9264
298.15 K | 9.375 | 7.067 | 5.436 | 4.234 | 3.319 | 2.606 | 2.045 | 1.606 | 1.269
308.15 K | 5.793 | 4.756 | 3.908 | 3.221 | 2.608 | 2.105 | 1.658 | 1.316 | 1.088
318.15 K | 4.646 | 3.935 | 3.285 | 2.719 | 2.255 | 1.884 | 1.566 | 1.277 | 0.9609

C[N+](=O)[O-] + CCC(C)=O
298.15 K, 101 kPa
Conditions | viscosity [mPa·s]
x1 = 0.1563 | 0.4237
x1 = 0.2954 | 0.4466
x1 = 0.418 | 0.4694
x1 = 0.5281 | 0.4923
x1 = 0.6264 | 0.515
x1 = 0.7156 | 0.5377
x1 = 0.7963 | 0.5604
x1 = 0.8703 | 0.5834
x1 = 0.9376 | 0.6067

C[N+](=O)[O-] + CCC(C)O
viscosity [mPa·s], 101.33 kPa
Conditions | 293.15 K | 303.15 K | 313.15 K
x2 = 0.05 | 0.631 | 0.562 | 0.508
x2 = 0.1 | 0.639 | 0.564 | 0.504
x2 = 0.15 | 0.65 | 0.571 | 0.506
x2 = 0.2002 | 0.676 | 0.584 | 0.515
x2 = 0.25 | 0.707 | 0.605 | 0.528
x2 = 0.3 | 0.751 | 0.633 | 0.546
x2 = 0.35 | 0.805 | 0.666 | 0.574
x2 = 0.4 | 0.864 | 0.705 | 0.595
x2 = 0.45 | 0.931 | 0.751 | 0.625
x2 = 0.5 | 0.995 | 0.798 | 0.659
x2 = 0.5502 | 1.081 | 0.854 | 0.7
x2 = 0.6 | 1.169 | 0.916 | 0.743
x2 = 0.6499 | 1.275 | 0.991 | 0.796
x2 = 0.7 | 1.4 | 1.079 | 0.857
x2 = 0.75 | 1.547 | 1.187 | 0.933
x2 = 0.8 | 1.742 | 1.316 | 1.03
x2 = 0.85 | 1.995 | 1.5 | 1.14
x2 = 0.9001 | 2.341 | 1.703 | 1.283
x2 = 0.95 | 2.845 | 2.02 | 1.477

CCCCC(CC)COP(=O)(O)OCC(CC)CCCC (stereo not drawn) + CCCC(=O)O
303.15 K, 101 kPa
Conditions | viscosity [mPa·s]
x1 = 0.0532 | 1.784
x1 = 0.1098 | 2.592
x1 = 0.1892 | 3.578
x1 = 0.2612 | 4.602
x1 = 0.3278 | 5.698
x1 = 0.4066 | 7.172
x1 = 0.5002 | 8.886
x1 = 0.6095 | 11.21
x1 = 0.6884 | 12.9
x1 = 0.7405 | 14.01
x1 = 0.8096 | 15.38
x1 = 0.8811 | 16.81
x1 = 0.9342 | 17.79

CCCCC(CC)COP(=O)(O)OCC(CC)CCCC (stereo not drawn) + CCCCCCC
viscosity [mPa·s], 101 kPa
Conditions | x1 = 0.0334 | x1 = 0.0721 | x1 = 0.1175 | x1 = 0.1661 | x1 = 0.2371 | x1 = 0.3181 | x1 = 0.4202 | x1 = 0.5541 | x1 = 0.7367
303.15 K | 0.4827 | 0.6407 | 0.866 | 1.16 | 1.699 | 2.494 | 3.805 | 6.131 | 10.6
313.15 K | 0.4218 | 0.5411 | 0.7073 | 0.92 | 1.301 | 1.851 | 2.738 | 4.282 | 7.192
323.15 K | 0.3705 | 0.4589 | 0.5793 | 0.7299 | 0.9935 | 1.364 | 1.95 | 2.944 | 4.774

CCCCC(CC)COP(=O)(O)OCC(CC)CCCC (stereo not drawn) + CCCCCCCCO
viscosity [mPa·s], 101 kPa
Conditions | 303.15 K | 313.15 K | 323.15 K
x1 = 0.0433 | 6.599 | 4.84 | 3.531
x1 = 0.0469 | 6.819 | – | –
x1 = 0.073 | 6.889 | – | –
x1 = 0.0919 | 7.065 | 5.143 | 3.719
x1 = 0.1008 | 7.185 | – | –
x1 = 0.1474 | 7.624 | 5.504 | 3.942
x1 = 0.1532 | 7.958 | – | –
x1 = 0.2125 | 8.316 | 5.948 | 4.214
x1 = 0.276 | 9.907 | – | –
x1 = 0.288 | 9.17 | 6.493 | 4.545
x1 = 0.3227 | 10.59 | – | –
x1 = 0.377 | 10.25 | 7.177 | 4.957
x1 = 0.4481 | 12.38 | – | –
x1 = 0.4848 | 11.66 | 8.068 | 5.489
x1 = 0.5519 | 13.89 | – | –
x1 = 0.6176 | 13.58 | 9.263 | 6.195
x1 = 0.6183 | 14.78 | – | –
x1 = 0.7209 | 16.04 | – | –
x1 = 0.7843 | 16.27 | 10.92 | 7.162
x1 = 0.8137 | 17.09 | – | –
x1 = 0.922 | 18.4 | – | –

CCCCCCn1cc[n+](C)c1.F[P-](F)(F)(F)(F)F + CCCCCCn1cc[n+](C)c1.[Cl-]
viscosity [mPa·s], 101 kPa
Conditions | 303.15 K | 308.15 K | 313.15 K | 318.15 K | 323.15 K
x2 = 0.2 | 962.7 | 679 | 486.2 | 357.7 | –
x2 = 0.4 | – | – | 854.7 | 598.9 | 433.5
x2 = 0.6 | – | – | – | – | 705.5
